{
  "source": "patent US20150307938A1",
  "about": "“METHOD TO IDENTIFY A NOVEL CLASS OF IMMUNOLOGIC ADJUVANTS” (Lancell, L.L.C., priority 2011, published 2015)",
  "test_system": "skin",
  "assay": "Affymetrix microarray of skin, DBP-4 hr and analogs vs. untreated; gene selection by log-2 fold change, Wilcoxon, Kendall tau (Tables 8, 9)",
  "assay_type": "in vivo, mouse",
  "conditions": "for Kendall: Kendall tau coefficient",
  "data": [
    {"smiles": "CCCCOC(=O)c1ccccc1C(=O)OCCCC", "note": "[DBP, dibutylphthalate]", "values": [
      {"measurement": "Wilcoxon", "setting": "2310016C08Rik NM_001190461_at, DBP-4 hr vs. untreated", "result": "Yes"},
      {"measurement": "Kendall", "setting": "2310016C08Rik NM_001190461_at", "result": "No"},
      {"measurement": "Wilcoxon", "setting": "Adam8 NM_007403_at, DBP-4 hr vs. untreated", "result": "Yes"},
      {"measurement": "Kendall", "setting": "Adam8 NM_007403_at", "result": "Yes"},
      {"measurement": "Wilcoxon", "setting": "Atf3 NM_007498_at, DBP-4 hr vs. untreated", "result": "Yes"},
      {"measurement": "Kendall", "setting": "Atf3 NM_007498_at", "result": "No"},
      {"measurement": "Wilcoxon", "setting": "Birc3 NM_007464_at, DBP-4 hr vs. untreated", "result": "No"},
      {"measurement": "Kendall", "setting": "Birc3 NM_007464_at", "result": "No"},
      {"measurement": "Wilcoxon", "setting": "Btg2 NM_007570_at, DBP-4 hr vs. untreated", "result": "Yes"},
      {"measurement": "Kendall", "setting": "Btg2 NM_007570_at", "result": "Yes"},
      {"measurement": "Wilcoxon", "setting": "Casp4 NM_007609_at, DBP-4 hr vs. untreated", "result": "Yes"},
      {"measurement": "Kendall", "setting": "Casp4 NM_007609_at", "result": "No"},
      {"measurement": "Wilcoxon", "setting": "Cd44 NM_001039150_at, DBP-4 hr vs. untreated", "result": "No"},
      {"measurement": "Kendall", "setting": "Cd44 NM_001039150_at", "result": "No"},
      {"measurement": "Wilcoxon", "setting": "Cd44 NM_001039151_at, DBP-4 hr vs. untreated", "result": "No"},
      {"measurement": "Kendall", "setting": "Cd44 NM_001039151_at", "result": "No"},
      {"measurement": "Wilcoxon", "setting": "Cebpd NM_007679_at, DBP-4 hr vs. untreated", "result": "Yes"},
      {"measurement": "Kendall", "setting": "Cebpd NM_007679_at", "result": "No"},
      {"measurement": "Wilcoxon", "setting": "Csf2rb NM_007780_at, DBP-4 hr vs. untreated", "result": "No"},
      {"measurement": "Kendall", "setting": "Csf2rb NM_007780_at", "result": "Yes"},
      {"measurement": "Wilcoxon", "setting": "Cxcl1 NM_008176_at, DBP-4 hr vs. untreated", "result": "Yes"},
      {"measurement": "Kendall", "setting": "Cxcl1 NM_008176_at", "result": "No"},
      {"measurement": "1600029D21Rik (NM_029639_at) Wilcoxon", "setting": "DBP-4 hr vs. untreated", "result": "Yes"},
      {"measurement": "2010002N04Rik (NM_134133_at) Wilcoxon", "setting": "DBP-4 hr vs. untreated", "result": "Yes"},
      {"measurement": "2310016C08Rik (NM_023516_at) Wilcoxon", "setting": "DBP-4 hr vs. untreated", "result": "Yes"},
      {"measurement": "1810011010Rik (NM_026931_at) Wilcoxon", "setting": "DBP-4 hr vs. untreated", "result": "Yes"},
      {"measurement": "Abcc3 (NM_029600_at) Wilcoxon", "setting": "DBP-4 hr vs. untreated", "result": "No"},
      {"measurement": "Acot5 (NM_145444_at) Wilcoxon", "setting": "DBP-4 hr vs. untreated", "result": "Yes"},
      {"measurement": "Adamts4 (NM_172845_at) Wilcoxon", "setting": "DBP-4 hr vs. untreated", "result": "Yes"},
      {"measurement": "Akap12 (NM_031185_at) Wilcoxon", "setting": "DBP-4 hr vs. untreated", "result": "No"},
      {"measurement": "Angptl4 (NM_020581_at) Wilcoxon", "setting": "DBP-4 hr vs. untreated", "result": "Yes"},
      {"measurement": "Arc (NM_018790_at) Wilcoxon", "setting": "DBP-4 hr vs. untreated", "result": "Yes"},
      {"measurement": "Arid5a (NM_145996_at) Wilcoxon", "setting": "DBP-4 hr vs. untreated", "result": "Yes"},
      {"measurement": "Arid5a (NR_033310_at) Wilcoxon", "setting": "DBP-4 hr vs. untreated", "result": "Yes"},
      {"measurement": "Bcar3 (NM_013867_at) Wilcoxon", "setting": "DBP-4 hr vs. untreated", "result": "No"},
      {"measurement": "Bcl3 (NM_033601_at) Wilcoxon", "setting": "DBP-4 hr vs. untreated", "result": "Yes"},
      {"measurement": "Bhlhe40 (NM_011498_at) Wilcoxon", "setting": "DBP-4 hr vs. untreated", "result": "No"},
      {"measurement": "Calcb (NM_054084_at) Wilcoxon", "setting": "DBP-4 hr vs. untreated", "result": "No"},
      {"measurement": "Ccl1 (NM_011329_at) Wilcoxon", "setting": "DBP-4 hr vs. untreated", "result": "Yes"},
      {"measurement": "Ccl2 (NM_011333_at) Wilcoxon", "setting": "DBP-4 hr vs. untreated", "result": "Yes"},
      {"measurement": "Ccl3 (NM_011337_at) Wilcoxon", "setting": "DBP-4 hr vs. untreated", "result": "Yes"},
      {"measurement": "Ccl7 (NM_013654_at) Wilcoxon", "setting": "DBP-4 hr vs. untreated", "result": "Yes"},
      {"measurement": "Ccl9 (NM_011338_at) Wilcoxon", "setting": "DBP-4 hr vs. untreated", "result": "Yes"},
      {"measurement": "Ccl12 (NM_011331_at) Wilcoxon", "setting": "DBP-4 hr vs. untreated", "result": "Yes"},
      {"measurement": "Ccl17 (NM_011332_at) Wilcoxon", "setting": "DBP-4 hr vs. untreated", "result": "Yes"},
      {"measurement": "Ccl20 (NM_016960_at) Wilcoxon", "setting": "DBP-4 hr vs. untreated", "result": "Yes"},
      {"measurement": "Cd86 (NM_019388_at) Wilcoxon", "setting": "DBP-4 hr vs. untreated", "result": "Yes"},
      {"measurement": "Cd207 (NM_144943_at) Wilcoxon", "setting": "DBP-4 hr vs. untreated", "result": "Yes"},
      {"measurement": "Clec4e (NM_019948_at) Wilcoxon", "setting": "DBP-4 hr vs. untreated", "result": "Yes"},
      {"measurement": "Clec7a (NM_020008_at) Wilcoxon", "setting": "DBP-4 hr vs. untreated", "result": "Yes"},
      {"measurement": "Clec4d (NM_010819_at) Wilcoxon", "setting": "DBP-4 hr vs. untreated", "result": "Yes"},
      {"measurement": "Clic4 (NM_013885_at) Wilcoxon", "setting": "DBP-4 hr vs. untreated", "result": "No"},
      {"measurement": "Crem (NM_013498_at) Wilcoxon", "setting": "DBP-4 hr vs. untreated", "result": "Yes"},
      {"measurement": "Cxcl16 (NM_023158_at) Wilcoxon", "setting": "DBP-4 hr vs. untreated", "result": "Yes"},
      {"measurement": "Cyr61 (NM_010516_at) Wilcoxon", "setting": "DBP-4 hr vs. untreated", "result": "Yes"},
      {"measurement": "Cytip (NM_139200_at) Wilcoxon", "setting": "DBP-4 hr vs. untreated", "result": "No"},
      {"measurement": "Dusp6 (NM_026268_at) Wilcoxon", "setting": "DBP-4 hr vs. untreated", "result": "Yes"},
      {"measurement": "Dusp7 (NM_153459_at) Wilcoxon", "setting": "DBP-4 hr vs. untreated", "result": "No"},
      {"measurement": "Epgn (NM_053087_at) Wilcoxon", "setting": "DBP-4 hr vs. untreated", "result": "Yes"},
      {"measurement": "Gzmb (NM_013542_at) Wilcoxon", "setting": "DBP-4 hr vs. untreated", "result": "Yes"},
      {"measurement": "Havcr2 (NM_134250_at) Wilcoxon", "setting": "DBP-4 hr vs. untreated", "result": "Yes"},
      {"measurement": "Ier2 (NM_010499_at) Wilcoxon", "setting": "DBP-4 hr vs. untreated", "result": "No"},
      {"measurement": "Ier3 (NM_133662_at) Wilcoxon", "setting": "DBP-4 hr vs. untreated", "result": "Yes"},
      {"measurement": "Ifi202b (NM_011940_at) Wilcoxon", "setting": "DBP-4 hr vs. untreated", "result": "Yes"},
      {"measurement": "Il1f6 (NM_019450_at) Wilcoxon", "setting": "DBP-4 hr vs. untreated", "result": "Yes"},
      {"measurement": "Il6 (NM_031168_at) Wilcoxon", "setting": "DBP-4 hr vs. untreated", "result": "Yes"},
      {"measurement": "Il20 (NM_021380_at) Wilcoxon", "setting": "DBP-4 hr vs. untreated", "result": "Yes"},
      {"measurement": "Jdp2 (NM_030887_at) Wilcoxon", "setting": "DBP-4 hr vs. untreated", "result": "No"},
      {"measurement": "Jun (NM_010591_at) Wilcoxon", "setting": "DBP-4 hr vs. untreated", "result": "No"},
      {"measurement": "Klk6 (NM_011177_at) Wilcoxon", "setting": "DBP-4 hr vs. untreated", "result": "Yes"},
      {"measurement": "Klrb1b (NM_030599_at) Wilcoxon", "setting": "DBP-4 hr vs. untreated", "result": "No"},
      {"measurement": "Krt25 (NM_133730_at) Wilcoxon", "setting": "DBP-4 hr vs. untreated", "result": "Yes"},
      {"measurement": "Krt27 (NM_010666_at) Wilcoxon", "setting": "DBP-4 hr vs. untreated", "result": "Yes"},
      {"measurement": "Krt35 (NM_016880_at) Wilcoxon", "setting": "DBP-4 hr vs. untreated", "result": "No"},
      {"measurement": "Krt71 (NM_019956_at) Wilcoxon", "setting": "DBP-4 hr vs. untreated", "result": "Yes"},
      {"measurement": "Krtap4-16 (NM_001013823_at) Wilcoxon", "setting": "DBP-4 hr vs. untreated", "result": "Yes"},
      {"measurement": "LOC100044068 (XM_001473873_at) Wilcoxon", "setting": "DBP-4 hr vs. untreated", "result": "Yes"},
      {"measurement": "LOC100504977 (XM_003085794_at) Wilcoxon", "setting": "DBP-4 hr vs. untreated", "result": "Yes"},
      {"measurement": "Maff (NM_010755_at) Wilcoxon", "setting": "DBP-4 hr vs. untreated", "result": "Yes"},
      {"measurement": "Map3k6 (NM_016693_at) Wilcoxon", "setting": "DBP-4 hr vs. untreated", "result": "No"},
      {"measurement": "Mcoln2 (NM_026656_at) Wilcoxon", "setting": "DBP-4 hr vs. untreated", "result": "Yes"},
      {"measurement": "Mt1 (NM_013602_at) Wilcoxon", "setting": "DBP-4 hr vs. untreated", "result": "No"},
      {"measurement": "NA (AFFX-18SRNAMur/X00686_3_at) Wilcoxon", "setting": "DBP-4 hr vs. untreated", "result": "Yes"},
      {"measurement": "NA (AFFX-18SRNAMur/X00686_5_at) Wilcoxon", "setting": "DBP-4 hr vs. untreated", "result": "Yes"},
      {"measurement": "NA (AFFX-18SRNAMur/X00686_M_at) Wilcoxon", "setting": "DBP-4 hr vs. untreated", "result": "Yes"},
      {"measurement": "NA (AFFX-BioB-3_at) Wilcoxon", "setting": "DBP-4 hr vs. untreated", "result": "Yes"},
      {"measurement": "NA (AFFX-BioB-5_at) Wilcoxon", "setting": "DBP-4 hr vs. untreated", "result": "Yes"},
      {"measurement": "NA (AFFX-BioB-M_at) Wilcoxon", "setting": "DBP-4 hr vs. untreated", "result": "Yes"}
    ]}
  ]
}
